{"source": "patent US8586548B2", "about": "“NAP alpha-aminoisobutyric acid analog with neuroprotective activity” (Ramot at Tel-Aviv University, Ltd., priority 2009, dated 2013)", "key": {"[1]": {"tested_on": "cerebral cortical cultures derived from newborn rats", "assay": "Neuronal survival in cerebral cortical cultures treated with beta-amyloid peptide (1-42)", "assay_type": "cell-based, rat", "conditions": "for protection of neurons against neurotoxicity of beta-amyloid peptide 1-42 (neuronal cell numbers): 2.5 μM beta-amyloid peptide (1-42), peptide 10^−16M to 10^−10M, p<0.001, FIG. 1; for neuroprotective activity compared with unmodified NAP: FIG. 1 compared with FIG. 2, 2.5 micromolar beta amyloid peptide", "experimental": "All peptides were dissolved in distilled sterile water to a concentration of 1 mM and then diluted in water in 1:10 steps up to the required concentration. The beta-amyloid peptide (1-42) was obtained from American Peptides, Calif., USA.\nCerebral cortical cultures derived from newborn rats were used for neuron survival assays. For mixed neuroglial cultures, neurons 300,000 cells/35 mm dish were seeded on 8-day-old astrocytes prepared as described (Bassan et al., supra (1999); Brenneman et al., supra (2004)). Cells were allowed to grow for one week at 37° C. 10% CO2 before experiments were performed. Four days after neuronal plating, cultures were given their respective treatment and assayed for neuronal survival after an additional 5 day incubation period.\nThe culture medium was removed and cells were washed twice with phosphate buffered saline (PBS). 1.5 ml of 3% glutaraldehyde (Fluka Biochemika, Steinheim, Germany) in 0.1 M cacodylic acid pH 7.2 (Fluka Biochemika, Steinheim, Germany) was added for two hours. The cells were then washed with PBS and 2 ml of 0.15 M cacodylic acid pH 7.2 was added. Neuronal identity was established by morphological criteria using an Olympus CK2 light microscope (Olympus, Japan) with a X40 lens. Fifty fields were counted in each dish (Zemlyak et al., supra (2000)).\nThe number of surviving neurons was assessed in cerebral cortical cultures derived from newborn rats using the beta-amyloid peptide (1-42), an Alzheimer's disease-associated toxin, at 2.5 μM. Alpha-aminoisobutric NAP was used at the following concentrations: 10^−16M, 10^−15M, 10^−12M, 10^−10M. […] Cell counts totaled>100% of control, because the treatment prevents neuronal cell death that occurred naturally in the cultures (10-20%), as observed before (Bassan et al., supra (1999)). […] This is an unexpected finding in view of previous reports that describe the SIP motif as essential for NAP neuroprotection (Wilkemeyer et al., Proc Natl Acad Sci USA, 100(14):8543-8 (2003))."}, "[2]": {"target": "VQIVYK (SEQ ID NO:10) peptide derived from tau (Homo sapiens, UniProt P10636)", "assay": "In vitro tau-like VQIVYK aggregation assay (Thioflavin S)", "assay_type": "biochemical", "experimental": "In the presence of polyglutamic acid (or heparin), VQIVYK (SEQ ID NO:10) aggregates which can be further detected by Thioflavin S (excitation 485 nm and emission 535) with emission intensity greatly increasing.\nFirst, different concentrations of polyglutamic acid (0, 100 μM, 250 μM, and 400 μM) VQIVYK (SEQ ID NO:10) and either […] (NH4Ac) 50 mM pH 6.5 or MOPS 20 mM pH 6.5 and Thioflavin S 5 μM were mixed together and incubated at room temperature. The extent of aggregation was read at excitation 485 nm and emission 535 nm using the infinite 200 system with the Magellan program.\nThe peptides were added at a range of concentrations (10^−17-10^−9 M) and the extent of aggregation of 100 μM VQIVYK (SEQ ID NO:10) was tested in the presence of polyglutamate 250 μM in MOPS 20 μM, pH 6.5 for 7 days.\nIn order to avoid reading self peptide aggregation as VQIVYK aggregation, for each peptide concentration, the fluorescence of the peptide solution without VQIVYK was subtracted from the fluorescence of each peptide concentration containing VQIVYK."}, "[3]": {"conditions": "listed as Alpha-aminoisobutric NAP"}, "[4]": {"conditions": "100 μM VQIVYK, polyglutamate 250 μM, MOPS pH 6.5, 7 days, FIG. 4, p<0.0005 vs. control, listed as IsoNAP"}}, "note": "Entries after “also recorded” stand apart in the source; their conditions may differ. Non-standard residues stand in square brackets, D forms with d. No end group written: not given here. Aib = CC(C)(N)C(=O)O"}
{"substance": "NAXaaVSIXaaQ (NA[Aib]VSI[Aib]Q) [Alpha-aminoisobutyric NAP, both prolines of NAP substituted]", "values": [{"measurement": "cell counts", "setting": "[1]; 2.5 μM beta-amyloid peptide (1-42) plus peptide", "result": "> 100 % of control"}, {"measurement": "protection of neurons against neurotoxicity of beta-amyloid peptide 1-42 (neuronal cell numbers)", "setting": "[1]; [3]", "result": "protected against neurotoxicity associated with the beta-amyloid peptide 1-42"}, {"measurement": "protection of neurons against neurotoxicity of beta-amyloid peptide 1-42 (neuronal cell numbers)", "setting": "[1]; listed as alpha-aminoisobutric NAP", "result": "confers protection of neurons"}, {"measurement": "neuroprotective activity compared with unmodified NAP", "setting": "[1]", "result": "increased neuroprotective activity"}, {"measurement": "neuroprotective activity compared with unmodified NAP", "setting": "[1]; [3]", "result": "increased activity"}, {"measurement": "inhibition of tau aggregation at 10^−13M", "setting": "[2]; [4]", "result": "remains effective; also recorded: more effective than NAP"}, {"measurement": "inhibition of tau aggregation at 10^−17M", "setting": "[2]; [4]", "result": "more potent; also recorded: more effective than NAP"}, {"measurement": "prevention of tau aggregation (overall)", "setting": "[2]; peptides at 10^−17-10^−9 M", "result": "effective for preventing tau aggregation"}]}
